For series [1] the following is noted: in water: light blue coloring of the solution, foam on shaking.
A further series relates to OVCAR-3/P19 tumor cells. Put plainly: Example 6: NOD/SCID mice s.c. injected with OVCAR-3 tumor cells. It is filed as in vivo, female NOD/SCID mice. More on the design: Vol (tumor volume) Day 20 / Vol (tumor volume) Day 30 / Vol (tumor volume) Day 37: unit: cm^3. The protocol: 2×10^6 OVCAR-3/P19 tumor cells were s.c. injected into female NOD/SCID mice. The mice were treated as follows.
The treatment began with a mean tumor volume of 80 mm^3.
To level possible differences in tumor volume at the start of treatment in the individual groups and to make evident differences owing to the low absolute volumes in the treatment groups, the relative tumor volumes (RTV) have been analyzed. The relative tumor volume results from the ratio of the volume on day x and the tumor volume at the start of treatment in the same test animal. […] The tumor growth was stopped in group 2 after just 7 days. After 3 days of constant tumor volume a tumor regression began from day 30 (10th day of treatment) in the test animals treated with copper-melphalan.

Series [2] concerns murine renal cell carcinoma (RENCA) tumor cells applied orthotopically. Put plainly: Example 5: orthotopic RENCA model, late treatment from Day 10. It is filed as in vivo, Balb/c mouse. As for the experimental part: (§1) The tests were carried out on a murine renal cell carcinoma model (RENCA) of the Balb/c mouse. The tumor cells were applied orthotopically into the left-hand renal capsule of syngenic mice. The effect of the treatment carried out on a primary tumor (in the implanted kidney), metastases (predominantly in the lungs, spleen and intestinal lymph nodes) and vessel density were investigated.
(§2) After anesthesia by means of isoflurane narcosis (O2— flow approx. 2.0 l with 0.5-1.5% isoflurane) a small incision was made in the mouse's left flank. The kidney was prepared and presented free from the peritoneum. A 27 G needle was introduced via the lower kidney pole through to below the renal capsule with visual inspection, and […] in 70 μl aliquots respectively applied once. The occurrence of a visible liquid-filled blister between kidney parenchyma and renal capsule and the discoloration of the kidneys were regarded as criteria for successful application. The kidney was subsequently reset and the incision into the abdominal wall closed by means of fascia stitches and cutaneous stitches with absorbable stitching material. Five test groups with ten animals respectively were formed. Group 1 negative control, group 2 positive control melphalan (Glaxo), group 3 and 4 MOC melphalan 2.5 mg/kg and 5 mg/kg. In the case of group 5 an antiangiogenically effective substance was applied as the positive control. The start of treatment was fixed for day 1 post op. for Cu(melphalan)2. Treatment was carried out daily up to day seven (see treatment model). The test was ended after 19 days since, owing to their size, the control tumors required termination for ethical reasons.
(§3) After selecting the animals the tissues to be examined were quickly transferred into liquid nitrogen and then frozen at −80° C. 5-10 μm thick sections were prepared from the tissue parts. The preparations were immunohistochemically dyed with an anti-CD31 antibody (Pecam-1) and the number of vessels in the control and treatment groups counted. Two sections of each tumor with three areas respectively were used for counting the vessels.
The study report matches that of Example 4, differing only in terms of treatment intervals and dose groups. Four test groups with ten animals respectively were formed. Group 1 negative control, group 2 positive control melphalan (Glaxo), groups 3 and 4 Cu(melphalan)2 5 mg/kg and 7.5 mg/kg. The start of treatment was fixed for day 10 post op. for all groups. The intention was for daily treatment from day 10 until day 17 (see treatment model). Owing to toxicities the treatment period was reduced to day 10-14. After 18 days the test was ended since, owing to their size, the control tumors required termination for ethical reasons.
• The implantation day was counted as day 0. • Duration of the test 18 days. • Number of animals at beginning of test 40; no animals died during the op.

The test system is the same in series [3]. Put plainly: Example 4: orthotopic renal cell carcinoma model (RENCA), treatment Day 1-7; primary tumor, metastases, vessel density (anti-CD31). It is filed as in vivo, Balb/c mouse. As to conditions: Melphalan 16.4 μmol/kg (5 mg/kg/d) i.p. Day 1-7, individual animals. As for the experimental part: as §1, §2
• The implantation day was counted as day 0. • Duration of the test 19 days. • Number of animals at beginning of test 50, no animals died during the op.
as §3

Setting [4] is: Gr. 2, 5 mg/kg melphalan i.p., individual animals.
Where [5] appears, read: Gr. 2, 5 mg/kg melphalan i.p., n = 8.
[6] abbreviates: Gr. 2, 5 mg/kg melphalan i.p., n = 8, baseline.
Setting [7] is: Melphalan 16.4 μmol/kg (5 mg/kg/d) i.p. Day 10-14, day 18, individual animals.

Where “and” joins values, the source holds several entries; their conditions need not be identical. Identical values can stand only once.

With `O=c1[n-]c(=O)n(C2CCCO2)cc1F.O=c1[n-]c(=O)n(C2CCCO2)cc1F.[Cu+2]` (centres unmarked) [Cu(tegafur)2], the solubility behavior entry in series [1] was “substantially matched that of a copper(II) salt”.
As for `N[C@@H](Cc1ccc(N(CCCl)CCCl)cc1)C(=O)O` [Melphalan, 4-[bis-(2-chloroethyl)-amino]-L-phenylalanine], the “Vol (tumor volume) Day 20” value in the series on OVCAR-3/P19 tumor cells (Gr. 2, 5 mg/kg melphalan i.p. days 21-37 every 2nd day, Day 20 = start of treatment (baseline), individual animals) was 0.04 (2×) and 0.03 and 0.10 (2×) and 0.20 and 0.05 and 0.12. Besides, the “RTV (relative tumor volume) Day 20” value in the series on OVCAR-3/P19 tumor cells (Gr. 2, 5 mg/kg melphalan i.p., Day 20 = start of treatment (baseline), individual animals) was found to be 1.00. Further, in the series with OVCAR-3/P19 tumor cells (setting [4]), the “RTV (relative tumor volume) Day 30” value is 2.75 and 3.00 and 1.40 and 1.75 and 3.20 and 1.42 and 2.20 and 2.50; the “RTV (relative tumor volume) Day 37” value was 1.98 and 2.37 and 0.81 and 1.05 and 1.66 and 0.82 and 1.71 and 1.18; the “Vol (tumor volume) Day 30” value is 0.11 and 0.09 and 0.14 and 0.35 and 0.16 and 0.17 and 0.22 and 0.10; the “Vol (tumor volume) Day 37” value was 0.08 (3×) and 0.07 and 0.21 and 0.10 and 0.17 and 0.05. Also, in the series with OVCAR-3/P19 tumor cells (setting [5]), the “RTV Day 30, mean” value was 2.28; the “RTV Day 30, median” value was 2.35; the “RTV Day 37, mean” value stood at 1.45; the “RTV Day 37, median” value is given as 1.42. Besides, in the series on OVCAR-3/P19 tumor cells (setting [5]), the “Vol Day 30, mean” value amounted to 0.17; the “Vol Day 30, median” value stood at 0.15; the “Vol Day 37, mean” value is 0.11; the “Vol Day 37, median” value amounted to 0.08. For the same molecule, in the series with OVCAR-3/P19 tumor cells (setting [6]), the “RTV Day 20, mean” value was 1.00; the “RTV Day 20, median” value came to 1.00; the “Vol Day 20, mean” value is 0.09; the “Vol Day 20, median” value is 0.08. Moreover, the “mice with RTV>1 on day 37” value in the series on OVCAR-3/P19 tumor cells (Gr. 2, 5 mg/kg melphalan, 6 of 8 mice) is 75%. The “tumor regression / growth at the end of treatment” value in the series with OVCAR-3/P19 tumor cells (Gr. 2, 5 mg/kg melphalan, range over test animals) was “between 20% tumor regression and 98% growth”. Besides, in series [2] (setting [7]), the Kidney weight is 2.77 gr and 1.38 gr and 0.69 gr and 2.91 gr and 1.90 gr (2×) and 1.63 gr and 2.11 gr and 1.45 gr and 1.13 gr; the Lung weight was 0.14 gr and 0.15 gr and 0.13 gr (2×) and 0.28 gr and 0.11 gr and 0.38 gr and 0.10 gr and 0.31 gr; the “Number of intestinal lymph node metastases” value is 91 and 0 (3×) and 49 and 17 and 22 and 32 and 84; the “Number of lung metastases (late treatment day 10-14)” value was 304 and 614 and 317 and 5 and 750 (3×) and 71 and 500 and 46. Further, the “Vessel density, later start of treatment day 10-14” value in series [2] (Melphalan 16.4 μmol/kg (5 mg/kg/d) i.p. Day 10-14, individual sections) is 36 (2×) and 28 and 42 and 41 and 68 and 35 and 47 and 32 and 37 and 64 and 62 and 40 (2×) and 34. In series [2] (Melphalan 16.4 μmol/kg (5 mg/kg/d) i.p. from Day 10 (planned 10-17, reduced to 10-14), test ended day 18, individual animals), the Kidney volume is 3.94 cm^3 and 2.59 cm^3 and 2.08 cm^3 and 4.25 cm^3 and 2.84 cm^3 and 2.20 cm^3 and 3.91 cm^3 and 3.63 cm^3 and 2.80 cm^3 and 3.23 cm^3. For the same molecule, in series [3] (day 19), the Kidney weight is 1.70 gr and 0.38 gr and 0.44 gr and 0.13 gr and 1.02 gr and 1.23 gr and 0.12 gr and 0.34 gr and 0.40 gr and 0.65 gr; the Lung weight was 0.12 gr (2×) and 0.20 gr and 0.13 gr and 0.76 gr and 0.10 gr and 0.25 gr and 0.48 gr and 0.22 gr and 0.14 gr; the “Number of intestinal lymph node metastases” value was 0 (6×) and 9 and 2 and 8 and 5; the “Number of lung metastases” value is 7 and 273 and 1 and >750 (2×) and 28 (2×) and 5 and 640 and 328. The Kidney volume in series [3] (test ended day 19) is 2.69 cm^3 and 0.58 cm^3 and 1.3 cm^3 and 0.28 cm^3 and 1.76 cm^3 and 2.00 cm^3 and 0.37 cm^3 and 0.77 cm^3 and 1.26 cm^3 and 1.60 cm^3.

The values are drawn from patent US20090105206A1, “Copper Melphalan And Copper Tegafur As Anti-Tumor Agents” (priority 2004, published 2009).
